Measurements from ChEMBL document CHEMBL2385071, “Synthesis and biological investigation of coumarin piperazine (piperidine) derivatives as potential multireceptor atypical antipsychotics” (J Med Chem, 2013).

Experiments:
Rattus norvegicus [1] = assay: Antipsychotic activity in po dosed rat assessed as reduction in conditioned avoidance response after 60 mins; format: functional; conditions: 1 h
Mus musculus [2] = assay: Toxicity in mouse assessed as weight gain at 0.06 to […], po for 28 days; format: organism-based; design: dose 0.06-0.16 mg/kg, route oral; conditions: in vivo, 672 h
Rattus norvegicus [3] = assay: Toxicity in rat assessed as QT interval prolongation at 30 mg/kg, po by electrophysiology assay; format: organism-based; design: dose 30 mg/kg, route oral; conditions: in vivo
Mus musculus [4] = organism: Mus musculus; assay: animal or person; conditions: po
Mus musculus [5] = organism: Mus musculus; assay: animal or person; conditions: po; remark: listed apart in the source
Description: Antipsychotic activity in po dosed mouse assessed as reduction in apomorphine-induced climbing behavior administered for 30 mins prior to apomorphine-challenge measured at 10 to 30 mins post-dose

In the case of Cc1nc2n(c(=O)c1CCN1CCC(c3noc4cc(F)ccc34)CC1)CCCC2 [RISPERIDONE], the ED50 (Rattus norvegicus [1]) is reported as 0.48 mg/kg, the Activity (Mus musculus [2]) is reported as “Toxic” and the Activity (Rattus norvegicus [3]) is reported as “Toxic”. The ED50 (Mus musculus [4]) was 0.01 mg/kg and the ED50 (Mus musculus [5]) was 0.02 mg/kg.
